From patent US11231416B2, “Virus-like particle (VLP) based small molecule-protein interaction trap” (VIB VZW, priority 2015, dated 2022)
Values belong to the molecule of their own block, whether it stands above or below them.

Columns and labels:
VAMP4 = target: T1, VAMP4 (Homo sapiens, UniProt O75379); assay: Viral trapping in VLPs, MS analysis; format: binding; settings: all proteins (incl. low confidence identifications)
T1 construct: endogenous in cells; host or cells: HEK293T

LOC524129 = assay: Viral trapping in VLPs, MS analysis; format: binding; settings: all proteins (incl. low confidence identifications)
TMED5 = target: T2, TMED5 (Homo sapiens, UniProt Q9Y3A6); assay: Viral trapping in VLPs, MS analysis; format: binding; settings: all proteins (incl. low confidence identifications)
T2 construct: endogenous in cells; host or cells: HEK293T

SLC46A1 = target: T3, SLC46A1 (Homo sapiens, UniProt Q96NT5); assay: Viral trapping in VLPs, MS analysis; format: binding; settings: all proteins (incl. low confidence identifications)
T3 construct: endogenous in cells; host or cells: HEK293T

RBP4 = assay: Viral trapping in VLPs, MS analysis; format: binding, human; settings: all proteins (incl. low confidence identifications)
VPS37D = target: T4, VPS37D (Homo sapiens, UniProt Q86XT2); assay: Viral trapping in VLPs, MS analysis; format: binding; settings: all proteins (incl. low confidence identifications)
T4 construct: endogenous in cells; host or cells: HEK293T

GALNT1 = target: T5, GALNT1 (Homo sapiens, UniProt Q10472); assay: Viral trapping in VLPs, MS analysis; format: binding; settings: all proteins (incl. low confidence identifications)
T5 construct: endogenous in cells; host or cells: HEK293T

ATP6V0C = target: T6, ATP6V0C (Homo sapiens, UniProt P27449); assay: Viral trapping in VLPs, MS analysis; format: binding; settings: all proteins (incl. low confidence identifications)
T6 construct: endogenous in cells; host or cells: HEK293T
T6 sequence (P27449 whole entry): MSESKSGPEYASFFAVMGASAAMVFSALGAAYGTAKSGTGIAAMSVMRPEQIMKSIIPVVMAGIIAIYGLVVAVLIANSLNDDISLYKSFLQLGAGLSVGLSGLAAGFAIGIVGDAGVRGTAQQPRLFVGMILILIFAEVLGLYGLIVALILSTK

RAB4A = target: T7, RAB4A (Homo sapiens, UniProt P20338); assay: Viral trapping in VLPs, MS analysis; format: binding; settings: all proteins (incl. low confidence identifications)
T7 construct: endogenous in cells; host or cells: HEK293T

EIF1AY = assay: Viral trapping in VLPs, MS analysis; format: binding, human; settings: all proteins (incl. low confidence identifications)
AKT3 = target: T8, AKT3 (Homo sapiens, UniProt Q9Y243); assay: Viral trapping in VLPs, MS analysis; format: binding; settings: all proteins (incl. low confidence identifications)
T8 construct: endogenous in cells; host or cells: HEK293T

MOXD1 = target: T9, MOXD1 (Homo sapiens, UniProt Q6UVY6); assay: Viral trapping in VLPs, MS analysis; format: binding; settings: all proteins (incl. low confidence identifications)
T9 construct: endogenous in cells; host or cells: HEK293T

KRT6B = target: T10, KRT6B (Homo sapiens, UniProt P04259); assay: Viral trapping in VLPs, MS analysis; format: binding
T10 construct: endogenous in cells; host or cells: HEK293T
T10 sequence (P04259 whole entry): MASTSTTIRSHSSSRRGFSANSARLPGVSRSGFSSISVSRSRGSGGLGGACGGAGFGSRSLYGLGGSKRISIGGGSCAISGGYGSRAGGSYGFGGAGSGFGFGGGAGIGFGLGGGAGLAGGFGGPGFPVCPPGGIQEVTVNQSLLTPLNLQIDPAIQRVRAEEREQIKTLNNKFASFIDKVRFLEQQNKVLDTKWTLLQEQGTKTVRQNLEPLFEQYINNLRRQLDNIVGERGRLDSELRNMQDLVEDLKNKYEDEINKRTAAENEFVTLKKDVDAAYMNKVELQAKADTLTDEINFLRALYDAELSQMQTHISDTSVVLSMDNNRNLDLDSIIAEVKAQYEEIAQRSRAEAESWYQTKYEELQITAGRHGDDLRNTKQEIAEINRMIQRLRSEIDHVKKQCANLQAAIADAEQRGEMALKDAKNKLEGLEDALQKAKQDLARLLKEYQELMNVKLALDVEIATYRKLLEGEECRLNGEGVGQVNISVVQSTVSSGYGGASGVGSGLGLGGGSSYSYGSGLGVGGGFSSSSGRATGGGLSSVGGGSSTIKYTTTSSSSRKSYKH

CTU1 = target: T11, CTU1 (Homo sapiens, UniProt Q7Z7A3); assay: Viral trapping in VLPs, MS analysis; format: binding
T11 construct: endogenous in cells; host or cells: HEK293T
T11 sequence (Q7Z7A3 whole entry): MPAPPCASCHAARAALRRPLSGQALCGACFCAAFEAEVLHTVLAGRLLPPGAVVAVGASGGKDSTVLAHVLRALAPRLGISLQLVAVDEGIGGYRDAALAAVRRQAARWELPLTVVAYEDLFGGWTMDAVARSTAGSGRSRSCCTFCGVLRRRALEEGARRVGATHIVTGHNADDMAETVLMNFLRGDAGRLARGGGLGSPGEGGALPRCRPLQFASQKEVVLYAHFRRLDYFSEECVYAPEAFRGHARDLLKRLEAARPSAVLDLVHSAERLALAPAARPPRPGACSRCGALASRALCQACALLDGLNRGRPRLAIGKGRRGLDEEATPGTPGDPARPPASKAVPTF

KIAA0319L = target: T12, KIAA0319L (Homo sapiens, UniProt Q8IZA0); assay: Viral trapping in VLPs, MS analysis; format: binding
T12 construct: endogenous in cells; host or cells: HEK293T
T12 sequence (Q8IZA0 whole entry): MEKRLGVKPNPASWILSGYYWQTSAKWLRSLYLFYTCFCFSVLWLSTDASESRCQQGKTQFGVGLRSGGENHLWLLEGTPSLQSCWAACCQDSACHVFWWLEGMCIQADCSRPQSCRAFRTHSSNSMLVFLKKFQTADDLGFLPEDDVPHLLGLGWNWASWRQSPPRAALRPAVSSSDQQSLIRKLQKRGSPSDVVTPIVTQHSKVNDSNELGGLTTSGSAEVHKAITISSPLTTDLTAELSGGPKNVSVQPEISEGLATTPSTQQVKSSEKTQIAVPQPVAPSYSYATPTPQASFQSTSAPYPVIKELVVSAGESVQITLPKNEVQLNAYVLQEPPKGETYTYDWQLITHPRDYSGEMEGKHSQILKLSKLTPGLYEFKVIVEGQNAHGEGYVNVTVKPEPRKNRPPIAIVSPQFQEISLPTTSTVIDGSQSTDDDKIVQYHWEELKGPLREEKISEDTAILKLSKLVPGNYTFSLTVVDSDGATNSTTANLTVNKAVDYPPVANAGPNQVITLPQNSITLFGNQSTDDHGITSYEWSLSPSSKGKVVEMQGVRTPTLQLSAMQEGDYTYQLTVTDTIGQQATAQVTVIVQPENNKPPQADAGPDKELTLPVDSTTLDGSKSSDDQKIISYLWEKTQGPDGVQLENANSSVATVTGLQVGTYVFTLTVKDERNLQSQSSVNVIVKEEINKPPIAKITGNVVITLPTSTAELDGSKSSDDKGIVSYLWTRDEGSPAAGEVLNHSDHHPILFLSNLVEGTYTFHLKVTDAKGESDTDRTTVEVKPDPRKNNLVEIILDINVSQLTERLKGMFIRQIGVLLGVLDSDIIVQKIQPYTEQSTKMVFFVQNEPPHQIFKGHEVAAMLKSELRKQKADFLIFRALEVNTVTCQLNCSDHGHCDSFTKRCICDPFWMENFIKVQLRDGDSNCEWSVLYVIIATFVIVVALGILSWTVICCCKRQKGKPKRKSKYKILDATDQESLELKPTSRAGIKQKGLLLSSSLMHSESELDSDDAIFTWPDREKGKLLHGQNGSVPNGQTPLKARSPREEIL

SBDS = target: T13, SBDS (Homo sapiens, UniProt Q9Y3A5); assay: Viral trapping in VLPs, MS analysis; format: binding; settings: all proteins (incl. low confidence identifications)
T13 construct: endogenous in cells; host or cells: HEK293T

GINS1 = target: T14, GINS1 (Homo sapiens, UniProt Q14691); assay: Viral trapping in VLPs, MS analysis; format: binding; settings: all proteins (incl. low confidence identifications)
T14 construct: endogenous in cells; host or cells: HEK293T

UBIAD1 = target: T15, UBIAD1 (Homo sapiens, UniProt Q9Y5Z9); assay: Viral trapping in VLPs, MS analysis; format: binding
T15 construct: endogenous in cells; host or cells: HEK293T
Method: (§1) To screen for simvastatin binders, cells were transfected with the GAG-eDHFR construct and then treated immediately after transfection with the MTX-PEG6-simvastatin molecule. A total of five biological repeats were performed together with four DMSO control experiments. The list of candidate interactors was obtained after removal of all proteins (including proteins identified with a single peptide) that were found in 19 control samples, the four DMSO samples and the other small molecule samples (e.g., the protein list of the five simvastatin samples was challenged against a total of 29 samples). The control samples are a number of successful Virotrap experiments using unrelated proteins to generate a list of proteins that can be considered background proteins, and that can be subtracted from the protein list obtained for the actual samples.
(§2) For each small molecule condition, two lists of proteins (annotated by their gene name) were reported. The left part of the tables (“All proteins”) contains all unique protein identifications (thus also proteins identified with a single peptide) obtained after removal of the background proteins. The right part of the tables (“Proteins identified with >1 peptide”) contains only the proteins identified with high confidence (at least two modified peptide identifications for each protein). Some recurrent proteins that were identified in multiple experiments with a single peptide are removed from this list (e.g., PYGM identified with low confidence in two repeat experiments).

SQLE = target: T16, SQLE (Homo sapiens, UniProt Q14534); assay: Viral trapping in VLPs, MS analysis; format: binding
T16 construct: endogenous in cells; host or cells: HEK293T
T16 sequence (Q14534 whole entry): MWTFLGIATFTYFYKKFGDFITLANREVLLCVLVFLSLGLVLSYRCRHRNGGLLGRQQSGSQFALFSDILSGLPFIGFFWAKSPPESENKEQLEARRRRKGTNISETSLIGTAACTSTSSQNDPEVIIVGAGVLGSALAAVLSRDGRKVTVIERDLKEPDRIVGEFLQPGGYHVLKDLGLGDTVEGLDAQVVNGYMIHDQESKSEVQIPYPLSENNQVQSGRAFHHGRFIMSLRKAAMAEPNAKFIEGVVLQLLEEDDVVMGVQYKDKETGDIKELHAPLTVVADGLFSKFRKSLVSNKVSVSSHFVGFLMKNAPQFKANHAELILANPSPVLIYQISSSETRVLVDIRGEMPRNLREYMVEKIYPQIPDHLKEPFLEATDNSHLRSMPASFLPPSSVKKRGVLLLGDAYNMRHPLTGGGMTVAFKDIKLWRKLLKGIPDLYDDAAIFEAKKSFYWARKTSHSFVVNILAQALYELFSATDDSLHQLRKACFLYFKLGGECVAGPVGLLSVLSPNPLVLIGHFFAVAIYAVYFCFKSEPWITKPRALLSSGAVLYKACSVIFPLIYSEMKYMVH
Method: as §1, §2

PDIA4 = target: T17, PDIA4 (Homo sapiens, UniProt P13667); assay: Viral trapping in VLPs, MS analysis; format: binding
T17 construct: endogenous in cells; host or cells: HEK293T
T17 sequence (P13667 21-645): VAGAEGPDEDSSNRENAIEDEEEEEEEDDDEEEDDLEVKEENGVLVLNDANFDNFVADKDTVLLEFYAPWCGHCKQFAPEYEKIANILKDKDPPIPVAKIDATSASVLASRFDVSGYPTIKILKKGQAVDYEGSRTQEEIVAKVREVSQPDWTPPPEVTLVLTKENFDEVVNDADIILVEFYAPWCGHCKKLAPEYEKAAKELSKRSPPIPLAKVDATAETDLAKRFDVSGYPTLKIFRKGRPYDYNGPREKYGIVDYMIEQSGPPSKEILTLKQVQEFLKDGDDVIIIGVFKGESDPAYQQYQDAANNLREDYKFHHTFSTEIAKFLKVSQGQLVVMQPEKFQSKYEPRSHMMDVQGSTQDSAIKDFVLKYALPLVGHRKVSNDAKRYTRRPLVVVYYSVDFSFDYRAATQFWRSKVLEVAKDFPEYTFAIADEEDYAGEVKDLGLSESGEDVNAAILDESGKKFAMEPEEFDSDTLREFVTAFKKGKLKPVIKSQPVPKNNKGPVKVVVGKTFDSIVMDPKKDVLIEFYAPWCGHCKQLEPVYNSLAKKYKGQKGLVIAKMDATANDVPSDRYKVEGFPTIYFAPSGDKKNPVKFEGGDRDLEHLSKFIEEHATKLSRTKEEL

FHL1 = target: T18, FHL1 (Homo sapiens, UniProt Q13642); assay: Viral trapping in VLPs, MS analysis; format: binding; settings: all proteins (incl. low confidence identifications)
T18 construct: endogenous in cells; host or cells: HEK293T

DBI = target: T19, DBI (Homo sapiens, UniProt P07108); assay: Viral trapping in VLPs, MS analysis; format: binding; settings: all proteins (incl. low confidence identifications)
T19 construct: endogenous in cells; host or cells: HEK293T
T19 sequence (P07108 whole entry): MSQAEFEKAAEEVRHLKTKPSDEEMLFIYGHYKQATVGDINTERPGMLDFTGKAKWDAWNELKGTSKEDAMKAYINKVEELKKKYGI

LAMTOR5 = target: T20, LAMTOR5 (Homo sapiens, UniProt O43504); assay: Viral trapping in VLPs, MS analysis; format: binding; settings: all proteins (incl. low confidence identifications)
T20 construct: endogenous in cells; host or cells: HEK293T

CNPY2 = target: T21, CNPY2 (Homo sapiens, UniProt Q9Y2B0); assay: Viral trapping in VLPs, MS analysis; format: binding; settings: all proteins (incl. low confidence identifications)
T21 construct: endogenous in cells; host or cells: HEK293T

SARM1 = target: T22, SARM1 (Homo sapiens, UniProt Q6SZW1); assay: Viral trapping in VLPs, MS analysis; format: binding
T22 construct: endogenous in cells; host or cells: HEK293T
T22 sequence (Q6SZW1 28-724): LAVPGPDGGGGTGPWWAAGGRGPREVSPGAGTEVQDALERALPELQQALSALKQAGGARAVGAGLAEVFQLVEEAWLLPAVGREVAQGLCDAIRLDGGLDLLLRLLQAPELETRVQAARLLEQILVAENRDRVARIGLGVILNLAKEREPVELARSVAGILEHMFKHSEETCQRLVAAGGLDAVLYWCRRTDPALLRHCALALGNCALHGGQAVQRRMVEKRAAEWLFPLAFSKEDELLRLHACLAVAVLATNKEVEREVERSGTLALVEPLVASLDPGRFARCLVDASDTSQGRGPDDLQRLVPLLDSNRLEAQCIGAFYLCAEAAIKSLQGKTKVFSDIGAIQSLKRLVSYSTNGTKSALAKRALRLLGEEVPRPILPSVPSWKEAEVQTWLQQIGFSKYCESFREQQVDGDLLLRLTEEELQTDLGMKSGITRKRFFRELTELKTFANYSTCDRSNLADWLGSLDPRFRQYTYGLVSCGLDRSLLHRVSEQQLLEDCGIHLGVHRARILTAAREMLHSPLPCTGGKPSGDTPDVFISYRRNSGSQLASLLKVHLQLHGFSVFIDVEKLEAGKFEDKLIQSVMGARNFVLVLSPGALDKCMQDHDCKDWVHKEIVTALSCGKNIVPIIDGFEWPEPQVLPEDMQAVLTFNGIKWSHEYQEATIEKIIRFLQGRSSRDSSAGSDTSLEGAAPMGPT

HMGCR = target: T23, HMGCR (Homo sapiens, UniProt P04035); assay: Viral trapping in VLPs, MS analysis; format: binding
T23 construct: endogenous in cells; host or cells: HEK293T
T23 sequence (P04035 whole entry): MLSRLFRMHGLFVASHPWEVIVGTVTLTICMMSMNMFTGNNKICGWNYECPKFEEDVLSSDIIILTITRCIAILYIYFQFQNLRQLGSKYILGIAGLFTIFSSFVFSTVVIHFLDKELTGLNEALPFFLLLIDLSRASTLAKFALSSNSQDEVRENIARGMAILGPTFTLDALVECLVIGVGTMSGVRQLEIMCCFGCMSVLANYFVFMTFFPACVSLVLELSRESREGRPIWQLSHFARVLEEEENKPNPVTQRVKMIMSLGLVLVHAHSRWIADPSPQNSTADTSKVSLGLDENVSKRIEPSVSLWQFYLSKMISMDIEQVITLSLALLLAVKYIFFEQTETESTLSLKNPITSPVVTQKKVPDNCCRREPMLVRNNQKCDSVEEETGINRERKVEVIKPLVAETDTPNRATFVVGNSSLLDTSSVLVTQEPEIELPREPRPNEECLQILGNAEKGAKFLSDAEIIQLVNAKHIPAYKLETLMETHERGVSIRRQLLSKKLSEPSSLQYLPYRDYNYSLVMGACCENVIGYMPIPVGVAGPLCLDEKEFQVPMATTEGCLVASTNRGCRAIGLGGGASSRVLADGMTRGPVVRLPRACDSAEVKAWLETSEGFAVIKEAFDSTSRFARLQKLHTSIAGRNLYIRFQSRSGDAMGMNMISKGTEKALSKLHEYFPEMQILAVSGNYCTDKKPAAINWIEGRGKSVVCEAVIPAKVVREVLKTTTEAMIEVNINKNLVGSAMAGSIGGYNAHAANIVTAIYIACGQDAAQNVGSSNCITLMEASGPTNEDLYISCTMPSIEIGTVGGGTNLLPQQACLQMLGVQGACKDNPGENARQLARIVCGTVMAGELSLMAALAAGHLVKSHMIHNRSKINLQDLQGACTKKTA

SH3GL2 = target: T24, SH3GL2 (Homo sapiens, UniProt Q99962); assay: Viral trapping in VLPs, MS analysis; format: binding; settings: all proteins (incl. low confidence identifications)
T24 construct: endogenous in cells; host or cells: HEK293T

LOC512271 = assay: Viral trapping in VLPs, MS analysis; format: binding; settings: all proteins (incl. low confidence identifications)
LNPEP = target: T25, LNPEP (Homo sapiens, UniProt Q9UIQ6); assay: Viral trapping in VLPs, MS analysis; format: binding; settings: all proteins (incl. low confidence identifications)
T25 construct: endogenous in cells; host or cells: HEK293T

PYGM = assay: Viral trapping in VLPs, MS analysis; format: binding, human; settings: all proteins (incl. low confidence identifications)
DDTL = assay: Viral trapping in VLPs, MS analysis; format: binding, human; settings: all proteins (incl. low confidence identifications)
SLC17A1 = target: T26, SLC17A1 (Homo sapiens, UniProt Q14916); assay: Viral trapping in VLPs, MS analysis; format: binding; settings: all proteins (incl. low confidence identifications)
T26 construct: endogenous in cells; host or cells: HEK293T

TMED9 = target: T27, TMED9 (Homo sapiens, UniProt Q9BVK6); assay: Viral trapping in VLPs, MS analysis; format: binding; settings: all proteins (incl. low confidence identifications)
T27 construct: endogenous in cells; host or cells: HEK293T

PRKCSH = target: T28, PRKCSH (Homo sapiens, UniProt P14314); assay: Viral trapping in VLPs, MS analysis; format: binding; settings: all proteins (incl. low confidence identifications)
T28 construct: endogenous in cells; host or cells: HEK293T

FABP1 = target: T29, FABP1 (Homo sapiens, UniProt P07148); assay: Viral trapping in VLPs, MS analysis; format: binding; settings: all proteins (incl. low confidence identifications)
T29 construct: endogenous in cells; host or cells: HEK293T

HSD17B4 = target: T30, HSD17B4 (Homo sapiens, UniProt P51659); assay: Binary MASPIT assay; format: cell-based; settings: binary MASPIT assay
T30 construct: endogenous in cells; host or cells: HEK293T
T30 sequence (P51659 1-736): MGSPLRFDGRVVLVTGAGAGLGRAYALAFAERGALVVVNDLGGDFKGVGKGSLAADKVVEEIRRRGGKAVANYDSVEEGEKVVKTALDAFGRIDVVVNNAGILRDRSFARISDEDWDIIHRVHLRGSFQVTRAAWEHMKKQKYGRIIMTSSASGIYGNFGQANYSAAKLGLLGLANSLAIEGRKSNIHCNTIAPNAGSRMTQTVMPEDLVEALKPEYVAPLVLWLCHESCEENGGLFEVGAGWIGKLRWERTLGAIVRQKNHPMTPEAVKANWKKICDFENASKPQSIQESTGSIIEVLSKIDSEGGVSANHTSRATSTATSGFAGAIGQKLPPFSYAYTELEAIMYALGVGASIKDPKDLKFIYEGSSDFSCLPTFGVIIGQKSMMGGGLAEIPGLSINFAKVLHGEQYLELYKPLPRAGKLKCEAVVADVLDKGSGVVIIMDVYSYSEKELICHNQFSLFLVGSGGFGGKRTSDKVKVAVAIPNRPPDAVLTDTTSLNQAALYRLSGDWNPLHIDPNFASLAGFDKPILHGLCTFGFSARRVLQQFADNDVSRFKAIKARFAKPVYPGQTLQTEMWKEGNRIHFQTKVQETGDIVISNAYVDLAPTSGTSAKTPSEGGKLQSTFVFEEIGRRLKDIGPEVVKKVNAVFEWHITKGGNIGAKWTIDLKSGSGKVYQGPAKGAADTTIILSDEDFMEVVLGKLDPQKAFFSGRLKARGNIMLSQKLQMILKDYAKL
Method: The binding of HSD17B4 to tamoxifen was further confirmed using the MASPIT technology. The binary MASPIT assay was essentially performed as described before (Risseeuw et al., 2013). Briefly, HEK293T cells were seeded in black tissue-culture treated 96-well plates at 10.000 cells/well in 100 μl culture medium (DMEM supplemented with 10% fetal calf serum), and grown at 37° C., 8% CO2. Twenty-four hours later cells were transfected with a combination of the pCLG-eDHFR plasmid (Risseeuw et al., 2013), the pMG1-HSD17B4 construct and the pXP2d2-rPAP1-luciferase reporter (Caligiuri et al., 2006). The pMG1-HSD17B4 construct was generated by Gateway transfer of the full size HSD17B4 ORF, obtained as an entry clone in the hORFeome collection, into the Gateway compatible pMG1 prey destination vector as described earlier (Lievens et al., 2009). Twenty-four hours after transfection, cells were either left unstimulated or treated with 100 ng/ml leptin, with or without addition of MTX-PEG6-tamoxifen. Another 24 hours later, luciferase activity was assayed using the Luciferase Assay System kit (Promega).

[1] = all proteins (incl. low confidence identifications)
[2] = proteins identified with >1 peptide (high confidence)

Recurrence (x/5) (VAMP4): 1 x/5
Recurrence (x/5) (TMED5): 1 x/5
Recurrence (x/5) (SLC46A1): 1 x/5
Recurrence (x/5) (VPS37D): 1 x/5
Recurrence (x/5) (GALNT1): 1 x/5
Recurrence (x/5) (ATP6V0C): 1 x/5
Recurrence (x/5) (RAB4A): 1 x/5
Recurrence (x/5) (AKT3): 1 x/5
Recurrence (x/5) (MOXD1): 1 x/5
Recurrence (x/5) (KRT6B; [1]): 1 x/5
Recurrence (x/5) (KRT6B; [2]): 1 x/5
Recurrence (x/5) (CTU1; [1]): 1 x/5
Recurrence (x/5) (CTU1; [2]): 1 x/5
Recurrence (x/5) (KIAA0319L; [1]): 1 x/5
Recurrence (x/5) (KIAA0319L; [2]): 1 x/5
Recurrence (x/5) (SBDS): 1 x/5
Recurrence (x/5) (GINS1): 1 x/5
Recurrence (x/5) (UBIAD1; [1]): 1 x/5
Recurrence (x/5) (UBIAD1; [2]): 1 x/5
Recurrence (x/5) (SQLE; [1]): 4 x/5
Recurrence (x/5) (SQLE; [2]): 3 x/5
Recurrence (x/5) (PDIA4; [1]): 1 x/5
Recurrence (x/5) (PDIA4; [2]): 1 x/5
Recurrence (x/5) (FHL1): 1 x/5
Recurrence (x/5) (DBI): 1 x/5
Recurrence (x/5) (LAMTOR5): 1 x/5
Recurrence (x/5) (CNPY2): 1 x/5
Recurrence (x/5) (SARM1; [1]): 3 x/5
Recurrence (x/5) (SARM1; [2]): 3 x/5
Recurrence (x/5) (HMGCR; [1]): 5 x/5
Recurrence (x/5) (HMGCR; [2]): 5 x/5
Recurrence (x/5) (SH3GL2): 1 x/5
Recurrence (x/5) (LNPEP): 1 x/5
Recurrence (x/5) (SLC17A1): 1 x/5
Recurrence (x/5) (TMED9): 1 x/5
Recurrence (x/5) (PRKCSH): 1 x/5
Recurrence (x/5) (FABP1): 1 x/5
SMILES: CC1C=C2C=CC(C)C(CCC3CC(O)CC(=O)O3)C2C(OC(=O)C(C)(C)Cc2cn(CCOCCOCCOCCOCCOCCNC(=O)CCC(NC(=O)c3ccc(N(C)Cc4cnc5nc(N)nc(N)c5n4)cc3)C(=O)O)nn2)C1 (centres unmarked) [MTX-PEG6-simvastatin]
Recurrence (x/5) (LOC524129): 1 x/5
Recurrence (x/5) (RBP4): 1 x/5
Recurrence (x/5) (EIF1AY): 1 x/5
Recurrence (x/5) (LOC512271): 1 x/5
Recurrence (x/5) (PYGM): 2 x/5
Recurrence (x/5) (DDTL): 1 x/5

interaction between tamoxifen and HSD17B4 (HSD17B4): confirmed
SMILES: CC/C(=C(\c1ccccc1)c1ccc(OCCN(C)C)cc1)c1ccccc1 [tamoxifen, reference compound]
